Laboratory results taken from ChEMBL document CHEMBL3784917, “Recent Progress in Histone Demethylase Inhibitors” (J Med Chem, 2016).

How the values were obtained:
[1] = Antiproliferative activity against human MM1S cells assessed as reduction in cell viability after 120 hrs by ATPlite assay; format: functional, cell-based; conditions: MM1.S
[2] = Antiproliferative activity against human BT474 cells assessed as reduction in cell viability after 120 hrs by ATPlite assay; format: functional, cell-based; conditions: BT-474, 120 h
[3] = molecular target: T1, Lysine-specific demethylase 2A (Homo sapiens, UniProt Q9Y2K7); test: Inhibition of KDM2A (unknown origin) after 24 hrs by alphascreen assay
T1 sequence (Q9Y2K7 whole entry): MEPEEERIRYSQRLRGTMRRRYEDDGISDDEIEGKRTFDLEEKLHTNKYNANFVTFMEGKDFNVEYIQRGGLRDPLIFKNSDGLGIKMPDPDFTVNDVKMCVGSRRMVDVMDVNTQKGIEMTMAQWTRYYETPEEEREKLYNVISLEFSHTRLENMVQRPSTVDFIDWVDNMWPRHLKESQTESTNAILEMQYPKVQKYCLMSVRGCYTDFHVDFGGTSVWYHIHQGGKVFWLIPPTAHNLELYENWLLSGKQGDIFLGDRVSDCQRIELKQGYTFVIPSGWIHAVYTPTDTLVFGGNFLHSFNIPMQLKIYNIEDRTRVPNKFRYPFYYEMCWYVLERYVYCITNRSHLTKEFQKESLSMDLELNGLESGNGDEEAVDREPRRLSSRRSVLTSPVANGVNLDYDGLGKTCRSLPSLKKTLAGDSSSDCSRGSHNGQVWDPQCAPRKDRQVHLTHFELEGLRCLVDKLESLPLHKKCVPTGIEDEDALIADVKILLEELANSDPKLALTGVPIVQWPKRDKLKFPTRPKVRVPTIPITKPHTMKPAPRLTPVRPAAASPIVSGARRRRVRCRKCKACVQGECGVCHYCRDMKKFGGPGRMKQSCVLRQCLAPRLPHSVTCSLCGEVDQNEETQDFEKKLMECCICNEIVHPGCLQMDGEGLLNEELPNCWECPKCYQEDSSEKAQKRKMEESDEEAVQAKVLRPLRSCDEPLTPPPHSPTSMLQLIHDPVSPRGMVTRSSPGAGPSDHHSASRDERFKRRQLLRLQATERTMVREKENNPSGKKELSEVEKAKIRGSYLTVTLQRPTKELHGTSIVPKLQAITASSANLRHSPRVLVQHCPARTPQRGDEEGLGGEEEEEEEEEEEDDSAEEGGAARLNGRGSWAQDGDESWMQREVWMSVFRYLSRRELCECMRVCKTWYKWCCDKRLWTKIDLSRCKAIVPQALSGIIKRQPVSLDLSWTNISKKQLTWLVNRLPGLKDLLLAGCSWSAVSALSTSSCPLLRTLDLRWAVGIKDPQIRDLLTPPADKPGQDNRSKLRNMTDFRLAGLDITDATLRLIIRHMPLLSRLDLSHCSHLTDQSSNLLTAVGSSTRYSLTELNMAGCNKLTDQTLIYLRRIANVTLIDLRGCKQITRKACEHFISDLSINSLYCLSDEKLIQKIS

[4] = molecular target: Lysine-specific demethylase 5C (Homo sapiens, UniProt P41229); test: Inhibition of KDM5C (unknown origin) after 24 hrs by alphascreen assay
Lysine-specific demethylase 5C, sequence (P41229 whole entry): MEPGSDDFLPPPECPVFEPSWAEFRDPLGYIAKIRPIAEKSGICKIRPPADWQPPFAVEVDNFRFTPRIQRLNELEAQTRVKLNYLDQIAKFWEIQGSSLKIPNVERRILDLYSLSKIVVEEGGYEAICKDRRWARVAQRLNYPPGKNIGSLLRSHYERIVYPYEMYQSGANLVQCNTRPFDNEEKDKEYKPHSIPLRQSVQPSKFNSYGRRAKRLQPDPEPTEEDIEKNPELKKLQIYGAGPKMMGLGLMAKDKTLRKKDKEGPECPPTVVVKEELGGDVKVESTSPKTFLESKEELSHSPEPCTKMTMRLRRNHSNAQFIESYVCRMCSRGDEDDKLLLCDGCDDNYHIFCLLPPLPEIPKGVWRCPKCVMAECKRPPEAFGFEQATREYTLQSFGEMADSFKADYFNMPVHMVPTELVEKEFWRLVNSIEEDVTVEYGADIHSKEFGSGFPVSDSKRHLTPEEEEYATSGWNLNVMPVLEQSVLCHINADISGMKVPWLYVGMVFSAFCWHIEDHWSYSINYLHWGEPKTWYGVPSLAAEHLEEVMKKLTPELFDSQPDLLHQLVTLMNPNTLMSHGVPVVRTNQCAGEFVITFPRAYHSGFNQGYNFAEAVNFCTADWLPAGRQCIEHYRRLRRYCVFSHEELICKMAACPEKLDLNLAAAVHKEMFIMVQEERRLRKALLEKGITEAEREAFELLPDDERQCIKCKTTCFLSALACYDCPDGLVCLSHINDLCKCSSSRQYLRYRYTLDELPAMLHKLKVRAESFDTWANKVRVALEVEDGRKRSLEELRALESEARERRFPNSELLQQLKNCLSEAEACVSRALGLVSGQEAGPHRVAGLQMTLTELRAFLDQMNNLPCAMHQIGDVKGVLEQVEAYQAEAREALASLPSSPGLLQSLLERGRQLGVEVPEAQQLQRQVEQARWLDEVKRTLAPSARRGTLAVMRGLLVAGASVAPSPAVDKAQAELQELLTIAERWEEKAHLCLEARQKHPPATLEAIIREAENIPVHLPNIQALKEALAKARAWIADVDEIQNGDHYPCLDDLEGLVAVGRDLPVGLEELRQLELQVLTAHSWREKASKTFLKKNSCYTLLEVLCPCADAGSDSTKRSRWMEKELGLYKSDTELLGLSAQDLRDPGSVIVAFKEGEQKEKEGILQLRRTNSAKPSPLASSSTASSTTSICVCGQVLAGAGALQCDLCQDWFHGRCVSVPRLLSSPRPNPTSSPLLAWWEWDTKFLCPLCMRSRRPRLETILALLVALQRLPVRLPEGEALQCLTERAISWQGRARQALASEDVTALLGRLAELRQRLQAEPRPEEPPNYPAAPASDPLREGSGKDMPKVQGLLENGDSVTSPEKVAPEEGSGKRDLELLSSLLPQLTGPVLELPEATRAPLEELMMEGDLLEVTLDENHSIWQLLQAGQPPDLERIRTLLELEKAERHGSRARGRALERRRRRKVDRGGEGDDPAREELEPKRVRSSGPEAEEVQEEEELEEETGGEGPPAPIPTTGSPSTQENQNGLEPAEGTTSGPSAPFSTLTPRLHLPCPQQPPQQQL

[5] = molecular target: T2, Lysine-specific demethylase 4A (Homo sapiens, UniProt O75164)
T2 sequence (O75164 whole entry): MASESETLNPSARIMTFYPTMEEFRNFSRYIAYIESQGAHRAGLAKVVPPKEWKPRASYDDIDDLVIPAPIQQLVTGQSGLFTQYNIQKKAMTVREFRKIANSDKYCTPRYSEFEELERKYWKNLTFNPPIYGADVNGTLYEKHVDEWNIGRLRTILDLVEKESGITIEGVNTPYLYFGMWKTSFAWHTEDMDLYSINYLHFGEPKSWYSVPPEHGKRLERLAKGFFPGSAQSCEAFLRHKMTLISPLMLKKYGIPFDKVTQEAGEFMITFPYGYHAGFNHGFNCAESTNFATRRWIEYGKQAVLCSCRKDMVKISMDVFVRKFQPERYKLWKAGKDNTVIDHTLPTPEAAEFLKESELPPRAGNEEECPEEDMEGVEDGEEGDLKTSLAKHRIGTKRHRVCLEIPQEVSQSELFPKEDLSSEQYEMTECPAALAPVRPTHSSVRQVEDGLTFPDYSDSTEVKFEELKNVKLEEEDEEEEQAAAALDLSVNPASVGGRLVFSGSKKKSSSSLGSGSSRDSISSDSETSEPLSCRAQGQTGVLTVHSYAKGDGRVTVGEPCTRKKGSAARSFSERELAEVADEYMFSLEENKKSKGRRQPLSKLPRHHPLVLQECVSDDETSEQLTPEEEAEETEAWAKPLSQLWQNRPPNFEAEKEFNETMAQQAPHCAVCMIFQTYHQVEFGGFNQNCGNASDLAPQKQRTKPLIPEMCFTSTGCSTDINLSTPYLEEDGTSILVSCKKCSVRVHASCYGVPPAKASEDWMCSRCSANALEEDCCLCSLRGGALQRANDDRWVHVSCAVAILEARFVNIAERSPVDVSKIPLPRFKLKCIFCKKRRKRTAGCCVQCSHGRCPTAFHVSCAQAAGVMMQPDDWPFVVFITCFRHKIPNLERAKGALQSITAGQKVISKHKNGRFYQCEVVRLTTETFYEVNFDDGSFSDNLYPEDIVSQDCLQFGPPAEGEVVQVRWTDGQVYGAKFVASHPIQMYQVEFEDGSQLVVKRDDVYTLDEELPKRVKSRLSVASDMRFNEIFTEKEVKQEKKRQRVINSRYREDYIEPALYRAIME

[6] = molecular target: Lysine-specific demethylase 6B (Homo sapiens, UniProt O15054); test: Inhibition of KDM6B (unknown origin) preincubated for 15 mins followed by histone substrate addition measured after 1 hr by alphascreen assay
Lysine-specific demethylase 6B, sequence (O15054 whole entry): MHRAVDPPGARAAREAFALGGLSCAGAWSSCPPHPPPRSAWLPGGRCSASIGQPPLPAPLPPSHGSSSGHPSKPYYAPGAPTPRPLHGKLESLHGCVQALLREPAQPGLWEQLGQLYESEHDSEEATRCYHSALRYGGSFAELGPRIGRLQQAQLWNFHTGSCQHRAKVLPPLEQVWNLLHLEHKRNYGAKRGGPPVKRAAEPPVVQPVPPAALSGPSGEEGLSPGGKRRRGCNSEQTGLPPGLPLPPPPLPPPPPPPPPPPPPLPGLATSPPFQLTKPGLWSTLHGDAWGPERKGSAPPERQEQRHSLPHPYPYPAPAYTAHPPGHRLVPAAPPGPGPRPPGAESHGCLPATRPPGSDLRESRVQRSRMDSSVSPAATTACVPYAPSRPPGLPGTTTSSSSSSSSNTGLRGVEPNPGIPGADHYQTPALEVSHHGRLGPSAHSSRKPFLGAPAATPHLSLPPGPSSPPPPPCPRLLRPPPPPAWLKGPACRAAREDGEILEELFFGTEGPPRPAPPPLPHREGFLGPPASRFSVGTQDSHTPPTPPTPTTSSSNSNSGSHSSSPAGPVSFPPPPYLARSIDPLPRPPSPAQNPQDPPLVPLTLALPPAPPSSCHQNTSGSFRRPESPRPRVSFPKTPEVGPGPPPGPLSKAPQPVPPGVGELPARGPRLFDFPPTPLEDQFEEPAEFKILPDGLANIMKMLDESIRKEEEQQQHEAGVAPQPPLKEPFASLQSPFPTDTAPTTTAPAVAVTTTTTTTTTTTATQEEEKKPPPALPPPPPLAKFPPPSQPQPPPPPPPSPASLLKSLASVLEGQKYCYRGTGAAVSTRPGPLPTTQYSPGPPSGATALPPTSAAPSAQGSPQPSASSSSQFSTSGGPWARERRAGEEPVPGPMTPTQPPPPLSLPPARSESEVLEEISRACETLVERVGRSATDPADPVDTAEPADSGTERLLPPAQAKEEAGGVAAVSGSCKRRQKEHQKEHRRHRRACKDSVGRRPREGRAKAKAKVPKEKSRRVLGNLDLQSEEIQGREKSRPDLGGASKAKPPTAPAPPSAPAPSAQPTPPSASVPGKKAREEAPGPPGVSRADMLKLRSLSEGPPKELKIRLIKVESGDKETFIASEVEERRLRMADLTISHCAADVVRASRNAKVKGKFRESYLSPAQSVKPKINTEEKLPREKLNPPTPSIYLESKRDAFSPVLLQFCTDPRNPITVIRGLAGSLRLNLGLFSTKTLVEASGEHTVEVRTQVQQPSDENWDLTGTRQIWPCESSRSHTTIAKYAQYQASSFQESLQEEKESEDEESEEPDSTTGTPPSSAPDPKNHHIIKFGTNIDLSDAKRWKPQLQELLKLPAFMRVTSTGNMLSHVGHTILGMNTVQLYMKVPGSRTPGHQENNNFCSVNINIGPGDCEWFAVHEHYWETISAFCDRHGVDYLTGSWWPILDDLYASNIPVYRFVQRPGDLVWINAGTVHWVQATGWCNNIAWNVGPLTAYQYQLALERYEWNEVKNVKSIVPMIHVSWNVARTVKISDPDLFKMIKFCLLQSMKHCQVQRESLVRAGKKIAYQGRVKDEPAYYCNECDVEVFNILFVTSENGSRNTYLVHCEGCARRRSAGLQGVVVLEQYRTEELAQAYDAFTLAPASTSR

Compound: CCN(CCN(C)C)C(=O)CNCc1cc(CNC(=O)C(F)(F)F)ccn1
- EC50 [1]: < 0.25 µM

Compound: CCN(CC)CCCCNCc1cc(C=O)ccn1
- EC50 [2]: < 0.25 µM

Compound: CCCCCCCCOC(=O)c1ccc(O)c2ncccc12
- IC50 [3]: > 100 µM
- IC50 [4]: > 100 µM
- EC50 [5]: 3.8 µM

Compound: Cc1ccsc1C(NC(=O)c1ccccc1)c1cc(Cl)c2cccnc2c1O (racemic)
- IC50 [6]: 106 µM
